From patent US12110279B2, “Triazolones, tetrazolones, and imidazolones, or their salts, and pharmaceutical compositions comprising the same” (Yuhan Corporation, priority 2021, dated 2024)
Counter-ions that a name gives are not always drawn. Like-named read-outs stand apart in the source and are kept apart here.

Key:
Format in all cases: biochemical
[1] = target: T1, recombinant human MAO-A (monoamine oxidase-A) (Homo sapiens, UniProt P21397); test: Amplex Red HRP-coupled amine oxidase activity evaluation, recombinant human MAO-A; details: substrate 0.5 mM tyramine; read-out: Inhibitory Activity (IC50, nM) MAO-A
T1 construct: purchased Sigma-Aldrich
T1 sequence (P21397 1-527): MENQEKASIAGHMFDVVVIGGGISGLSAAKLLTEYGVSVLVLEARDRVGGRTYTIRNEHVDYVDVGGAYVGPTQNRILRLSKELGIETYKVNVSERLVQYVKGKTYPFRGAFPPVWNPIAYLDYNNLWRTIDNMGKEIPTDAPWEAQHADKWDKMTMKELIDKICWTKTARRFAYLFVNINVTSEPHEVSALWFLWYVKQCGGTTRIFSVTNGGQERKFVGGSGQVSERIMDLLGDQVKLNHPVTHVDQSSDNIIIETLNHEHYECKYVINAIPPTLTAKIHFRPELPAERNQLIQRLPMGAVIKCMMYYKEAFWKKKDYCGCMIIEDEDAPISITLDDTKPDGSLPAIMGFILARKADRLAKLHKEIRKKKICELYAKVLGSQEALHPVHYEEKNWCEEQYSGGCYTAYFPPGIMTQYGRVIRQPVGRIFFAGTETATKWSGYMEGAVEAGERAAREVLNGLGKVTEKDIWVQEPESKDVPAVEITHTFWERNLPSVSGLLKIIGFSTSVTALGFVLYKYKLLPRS
Experimental: [The source words this procedure for another target and says it was used here with some conditions changed.] (§1) The compounds according to the present technology were evaluated in terms of activity on recombinant human VAP-1 (R&D systems) by measuring the level of hydrogen peroxide in horseradish peroxidase (HRP)-coupled reaction using Amplex Red Hydrogen Peroxide Assay Kit (Molecular Probes, Invitrogen, USA). The experiment was carried out at room temperature using benzylamine as a substrate. In the HRP-coupled reaction, hydrogen peroxide oxidation of 10-acetyl-3,7-dihydroxyphenoxazine (Amplex Red reagent) produces resorufin, which is a highly fluorescent compound. Briefly, the test compound was dissolved in dimethyl sulfoxide (DMSO) at a concentration of 20 mM. The dose-response assessment was made by 1:3 serial dilution in DMSO, thereby creating an 8-point curve. The concentration of the upper part was controlled according to the efficacy of the compounds, followed by dilution with a reaction buffer solution to obtain a final DMSO concentration of less than 1%. To each well of a 96 black well plate, human VAP-1 purified in 50 mM sodium phosphate buffer solution (pH7.4) was added. The test compounds dissolved in DMSO were incubated with the human VAP-1 enzymes at 37° C. for 30 minutes. After 30-minute incubation, each well was added with a reaction mixture containing 200 uM Amplex Red reagent prepared from 50 mM sodium phosphate buffer solution (pH 7.4), 1 mM benzylamine, and 1 U/mL HRP. Fluorescence intensity was measured at several time points during 1-2 hours using a microplate reader (Flexstation3, Molecular Devices) under the wavelength condition exciting at 544 nm and reading the emission at 590 nm. The inhibitory effect of the compounds was measured as a decrease (%) in the signal rate as compared to the control group without any inhibitor (only diluted DMSO). Data was fixed to a logistic model with four variables and IC50 value was calculated using GraphPad Prism program.

recombinant human VAP-1 = target: T2, recombinant human VAP-1 (Homo sapiens, UniProt Q16853); test: Amplex Red HRP-coupled amine oxidase activity evaluation, recombinant human VAP-1; details: substrate 1 mM benzylamine; 30 min preincubation at 37° C.; read-out: Inhibitory Activity (IC50, nM) human VAP-1
T2 construct: purchased R&D systems
T2 sequence (Q16853 1-763): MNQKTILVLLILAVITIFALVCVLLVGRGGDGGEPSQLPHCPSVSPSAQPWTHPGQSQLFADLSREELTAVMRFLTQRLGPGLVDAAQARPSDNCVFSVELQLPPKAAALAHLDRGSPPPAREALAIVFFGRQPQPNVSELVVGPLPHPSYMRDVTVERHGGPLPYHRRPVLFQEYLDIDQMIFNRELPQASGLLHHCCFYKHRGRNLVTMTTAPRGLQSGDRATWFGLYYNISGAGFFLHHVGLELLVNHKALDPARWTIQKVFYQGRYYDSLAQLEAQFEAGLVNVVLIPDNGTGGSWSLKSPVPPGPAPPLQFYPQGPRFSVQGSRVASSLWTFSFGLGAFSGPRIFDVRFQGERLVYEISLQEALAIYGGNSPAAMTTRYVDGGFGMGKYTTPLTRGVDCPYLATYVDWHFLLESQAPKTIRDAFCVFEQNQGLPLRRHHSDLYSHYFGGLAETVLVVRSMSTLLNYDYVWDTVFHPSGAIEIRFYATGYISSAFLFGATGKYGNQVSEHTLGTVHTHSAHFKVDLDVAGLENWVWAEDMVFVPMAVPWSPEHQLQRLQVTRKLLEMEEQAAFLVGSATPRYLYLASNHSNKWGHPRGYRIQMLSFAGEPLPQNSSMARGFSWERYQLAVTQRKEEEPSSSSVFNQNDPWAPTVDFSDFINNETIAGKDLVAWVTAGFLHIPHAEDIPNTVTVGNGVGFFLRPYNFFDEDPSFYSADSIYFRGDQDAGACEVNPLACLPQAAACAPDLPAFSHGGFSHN
Experimental: as §1

[2] = target: T3, recombinant human DAO (diamine oxidase) (Homo sapiens, UniProt P19801); test: Amplex Red HRP-coupled amine oxidase activity evaluation, recombinant human DAO
T3 construct: purchased R&D systems
T3 sequence (P19801 20-751): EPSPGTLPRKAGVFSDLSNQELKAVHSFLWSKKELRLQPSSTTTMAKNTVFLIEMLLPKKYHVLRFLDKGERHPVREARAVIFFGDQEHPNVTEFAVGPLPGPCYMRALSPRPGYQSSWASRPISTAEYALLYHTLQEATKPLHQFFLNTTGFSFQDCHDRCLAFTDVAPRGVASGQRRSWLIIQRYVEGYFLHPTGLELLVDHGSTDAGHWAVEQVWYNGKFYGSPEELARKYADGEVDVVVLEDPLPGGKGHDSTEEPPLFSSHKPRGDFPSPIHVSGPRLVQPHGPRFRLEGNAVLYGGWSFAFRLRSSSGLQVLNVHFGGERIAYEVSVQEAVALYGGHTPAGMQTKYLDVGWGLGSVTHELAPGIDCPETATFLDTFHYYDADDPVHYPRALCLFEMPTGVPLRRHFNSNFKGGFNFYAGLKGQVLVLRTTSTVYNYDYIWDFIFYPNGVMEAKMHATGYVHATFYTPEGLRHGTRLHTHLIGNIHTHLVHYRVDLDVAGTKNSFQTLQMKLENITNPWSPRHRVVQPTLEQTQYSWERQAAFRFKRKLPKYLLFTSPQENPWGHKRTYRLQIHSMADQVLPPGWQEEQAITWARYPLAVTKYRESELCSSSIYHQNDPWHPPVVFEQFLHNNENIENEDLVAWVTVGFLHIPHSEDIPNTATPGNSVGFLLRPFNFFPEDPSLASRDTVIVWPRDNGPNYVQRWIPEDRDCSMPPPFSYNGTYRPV
Experimental: [The source words this procedure for another target and says it was used here with some conditions changed.] as §1

[3] = target: T4, recombinant human MAO-B (monoamine oxidase-B) (Homo sapiens, UniProt P27338); test: Amplex Red HRP-coupled amine oxidase activity evaluation, recombinant human MAO-B; details: substrate 1 mM benzylamine; read-out: Inhibitory Activity (IC50, nM) MAO-B
T4 construct: purchased Sigma-Aldrich
T4 sequence (P27338 1-520): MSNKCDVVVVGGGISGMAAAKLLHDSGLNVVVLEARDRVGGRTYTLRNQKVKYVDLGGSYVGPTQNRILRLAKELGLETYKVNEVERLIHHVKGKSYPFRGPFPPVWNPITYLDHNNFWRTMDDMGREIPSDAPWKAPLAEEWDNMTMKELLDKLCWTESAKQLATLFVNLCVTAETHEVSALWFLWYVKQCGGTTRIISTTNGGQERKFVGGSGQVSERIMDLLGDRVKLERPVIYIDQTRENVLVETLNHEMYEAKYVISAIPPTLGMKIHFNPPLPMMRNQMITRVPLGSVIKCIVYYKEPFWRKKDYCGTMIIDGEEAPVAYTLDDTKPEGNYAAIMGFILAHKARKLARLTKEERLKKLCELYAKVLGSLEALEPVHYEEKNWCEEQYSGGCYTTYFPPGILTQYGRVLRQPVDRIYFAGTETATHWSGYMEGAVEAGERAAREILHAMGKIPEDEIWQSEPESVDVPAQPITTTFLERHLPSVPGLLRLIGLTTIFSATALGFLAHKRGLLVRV
Experimental: [The source words this procedure for another target and says it was used here with some conditions changed.] as §1

[4] = substrate 1 mM putrescine, read-out: Inhibitory Activity (IC50, nM) DAO

| SMILES | IC50 [1] | IC50 (recombinant human VAP-1) | IC50 [2, 4] | IC50 [3] | IC50 [2] |
| --- | --- | --- | --- | --- | --- |
| CCn1cc(-c2ccc(Cn3c(C)nn(CC(CN)=C(F)F)c3=O)s2)cn1 [Example 1, 2-[2-(aminomethyl)-3,3-difluoro-allyl]-4-[[5-(1-ethylpyrazol-4-yl)-2-thienyl]methyl]-5-methyl-1,2,4-triazol-3-one trifluoroacetate] | > 100000 nM | 1.7 nM | > 100000 nM | > 100000 nM | – |
| Cc1nn(CC(CN)=C(F)F)c(=O)n1Cc1ccc(-c2ccc(S(C)(=O)=O)cc2)s1 [Example 2, 2-[2-(aminomethyl)-3,3-difluoro-allyl]-5-methyl-4-[[5-(4-methylsulfonylphenyl)-2-thienyl]methyl]-1,2,4-triazol-3-one trifluoroacetate] | > 100000 nM | 1.8 nM | > 100000 nM | > 100000 nM | – |
| Cc1nn(CC(CN)=C(F)F)c(=O)n1Cc1ccc(-c2ccc(N3CCNCC3)cc2)s1 [Example 3, 2-[2-(aminomethyl)-3,3-difluoro-allyl]-5-methyl-4-[[5-(4-piperazin-1-ylphenyl)-2-thienyl]methyl]-1,2,4-triazol-3-one di-trifluoroacetate] | > 100000 nM | 18 nM | > 100000 nM | > 100000 nM | – |
| CCn1cc(-c2ccc(Cn3c(C)nn(CC(CN)=C(F)F)c3=O)s2)ccc1=O [Example 4, 5-[5-[[1-[2-(aminomethyl)-3,3-difluoro-allyl]-3-methyl-5-oxo-1,2,4-triazol-4-yl]methyl]-2-thienyl]-1-ethyl-pyridin-2-one trifluoroacetate] | > 100000 nM | 1.5 nM | > 100000 nM | > 100000 nM | – |
| Cc1nn(CC(CN)=C(F)F)c(=O)n1Cc1ccc(-c2ccc(N(C)C)nc2)s1 [Example 5, 2-[2-(aminomethyl)-3,3-difluoro-allyl]-4-[[5-[6-(dimethylamino)-3-pyridyl]-2-thienyl]methyl]-5-methyl-1,2,4-triazol-3-one trifluoroacetate] | > 100000 nM | 2 nM | > 100000 nM | > 100000 nM | – |
| Cc1nn(CC(CN)=C(F)F)c(=O)n1Cc1ccc(-c2ccc3c(c2)OCO3)s1 [Example 6, 2-[2-(aminomethyl)-3,3-difluoro-allyl]-4-[[5-(1,3-benzodioxol-5-yl)-2-thienyl]methyl]-5-methyl-1,2,4-triazol-3-one trifluoroacetate] | > 100000 nM | 2.5 nM | > 100000 nM | > 100000 nM | – |
| Cc1cc(-c2ccc(Cn3c(C)nn(CC(CN)=C(F)F)c3=O)s2)cc2c1NC(=O)CC2 [Example 7, 6-[5-[[1-[2-(aminomethyl)-3,3-difluoro-allyl]-3-methyl-5-oxo-1,2,4-triazol-4-yl]methyl]-2-thienyl]-8-methyl-3,4-dihydro-1H-quinolin-2-one trifluoroacetate] | > 100000 nM | 1 nM | > 100000 nM | > 100000 nM | – |
| Cc1nn(CC(CN)=C(F)F)c(=O)n1Cc1ccc(-c2ccc3c(c2)CCC(=O)N3C)s1 [Example 8, 6-[5-[[1-[2-(aminomethyl)-3,3-difluoro-allyl]-3-methyl-5-oxo-1,2,4-triazol-4-yl]methyl]-2-thienyl]-1-methyl-3,4-dihydroquinolin-2-one trifluoroacetate] | > 100000 nM | 1 nM | > 100000 nM | > 100000 nM | – |
| CCn1cc(-c2ccc(-n3nnn(CC(CN)=C(F)F)c3=O)s2)ccc1=O [Example 9, 5-[5-[4-[2-(aminomethyl)-3,3-difluoro-allyl]-5-oxo-tetrazol-1-yl]-2-thienyl]-1-ethyl-pyridin-2-one trifluoroacetate] | > 100000 nM | 0.4 nM | 3.1 nM | 203 nM | – |
| CS(=O)(=O)c1ccc(-c2cccc(-n3nnn(CC(CN)=C(F)F)c3=O)c2)cc1 [Example 10, 1-[2-(aminomethyl)-3,3-difluoro-allyl]-4-[3-(4-methylsulfonylphenyl)phenyl]tetrazol-5-one trifluoroacetate] | > 100000 nM | 0.4 nM | – | 53200 nM | 2.2 nM |
| NCC(Cn1nnn(-c2cccc(-c3ccc(N4CCNCC4)cc3)c2)c1=O)=C(F)F [Example 11, 1-[2-(aminomethyl)-3,3-difluoro-allyl]-4-[3-(4-piperazin-1-ylphenyl)phenyl]tetrazol-5-one trifluoroacetate] | > 100000 nM | 7 nM | – | > 100000 nM | 351 nM |
